# Target: T1, human GluN1/GluN2B NMDA receptors (Homo sapiens, UniProt Q13224)
# T1 construct: expressed in transfected cells
# Experiment: Cell-based calcium flux (FLIPR) assay on cloned human NR1/NR2B ion channels expressed in mammalian cells (standard and HTS buffer variants);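 also: stable Tet-On inducible cell line, Ca2+ influx triggered by glutamate at about EC40 plus 10 µM glycine, fluorescent dye read-out over 5 min, normalized to control wells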
# Conditions: HTS assay buffer (1.5 mM MgCl2 in dye loading buffer; 150 mM NaCl, 3 mM KCl in assay buffer), human GluN1/GluN2B, read-out: NR2B IC50 (μM) HTS assay
# T1 sequence (Q13224 27-1484, other chains not shown): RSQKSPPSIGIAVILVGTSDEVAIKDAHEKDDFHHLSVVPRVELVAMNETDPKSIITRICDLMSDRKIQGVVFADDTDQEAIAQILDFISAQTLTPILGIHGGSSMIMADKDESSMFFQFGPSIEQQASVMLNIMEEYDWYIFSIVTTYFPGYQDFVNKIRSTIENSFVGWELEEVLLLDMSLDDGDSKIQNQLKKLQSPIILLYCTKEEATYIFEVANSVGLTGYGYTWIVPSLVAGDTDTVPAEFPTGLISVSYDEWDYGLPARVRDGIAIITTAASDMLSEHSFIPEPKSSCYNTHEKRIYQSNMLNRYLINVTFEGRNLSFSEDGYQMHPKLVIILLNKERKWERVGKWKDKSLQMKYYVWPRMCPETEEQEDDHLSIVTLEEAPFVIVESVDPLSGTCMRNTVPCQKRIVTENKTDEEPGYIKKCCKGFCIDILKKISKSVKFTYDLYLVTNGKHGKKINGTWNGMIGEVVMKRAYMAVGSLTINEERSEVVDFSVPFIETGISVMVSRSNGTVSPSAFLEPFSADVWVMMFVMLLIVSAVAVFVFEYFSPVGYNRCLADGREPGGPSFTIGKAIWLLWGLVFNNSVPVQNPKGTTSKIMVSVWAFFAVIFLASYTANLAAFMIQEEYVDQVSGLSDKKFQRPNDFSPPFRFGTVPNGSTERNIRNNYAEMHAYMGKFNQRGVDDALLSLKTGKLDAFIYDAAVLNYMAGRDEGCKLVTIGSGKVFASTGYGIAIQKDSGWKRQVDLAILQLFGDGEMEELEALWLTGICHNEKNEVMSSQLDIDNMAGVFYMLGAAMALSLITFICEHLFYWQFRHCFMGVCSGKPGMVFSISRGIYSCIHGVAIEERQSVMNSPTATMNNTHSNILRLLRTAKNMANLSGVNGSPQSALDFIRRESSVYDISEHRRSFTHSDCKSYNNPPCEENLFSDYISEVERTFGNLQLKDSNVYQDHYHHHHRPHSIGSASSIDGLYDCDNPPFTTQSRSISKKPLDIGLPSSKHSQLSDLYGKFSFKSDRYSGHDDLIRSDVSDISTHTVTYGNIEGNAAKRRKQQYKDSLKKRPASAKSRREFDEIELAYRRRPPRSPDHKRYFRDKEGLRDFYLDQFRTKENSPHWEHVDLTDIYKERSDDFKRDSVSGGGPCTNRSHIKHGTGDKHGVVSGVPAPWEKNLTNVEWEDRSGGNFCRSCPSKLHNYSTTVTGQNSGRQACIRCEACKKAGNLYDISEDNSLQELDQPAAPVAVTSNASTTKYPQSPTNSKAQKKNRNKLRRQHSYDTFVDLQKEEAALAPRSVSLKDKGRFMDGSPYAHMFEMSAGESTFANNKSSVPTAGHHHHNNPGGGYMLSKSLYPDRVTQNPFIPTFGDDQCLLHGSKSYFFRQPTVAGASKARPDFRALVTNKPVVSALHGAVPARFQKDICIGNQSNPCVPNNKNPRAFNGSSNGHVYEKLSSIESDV
row,IC50 [µM],SMILES
1,0.867,"COc1cc(F)ccc1-c1cnc2[nH]c(=O)n(CC(N)=O)c2c1 [Example 433, 2-[6-(4-Fluoro-2-methoxy-phenyl)-2-oxo-3H-imidazo[4,5-b]pyridin-1-yl]acetamide]"
2,4.7,"CNC(=O)Cn1c(=O)[nH]c2ncc(-c3ccc(Cl)cc3)cc21 [Example 436, 2-[6-(4-Chlorophenyl)-2-oxo-3H-imidazo[4,5-b]pyridin-1-yl]-N-methyl-acetamide]"
3,0.394,"CNC(=O)Cn1c(=O)[nH]c2ncc(-c3cc(C)cc(C)c3)cc21 [Example 438, 2-[6-(3,5-Dimethylphenyl)-2-oxo-3H-imidazo[4,5-b]pyridin-1-yl]-N-methyl-acetamide]"
4,3.37,"CNC(=O)Cn1c(=O)[nH]c2ncc(-c3ccc(OC)c(C)c3)cc21 [Example 439, 2-[6-(4-Methoxy-3-methyl-phenyl)-2-oxo-3H-imidazo[4,5-b]pyridin-1-yl]-N-methyl-acetamide]"
5,2.44,"CCOc1ccccc1-c1cnc2[nH]c(=O)n(CC(=O)NC)c2c1 [Example 441, 2-[6-(2-Ethoxyphenyl)-2-oxo-3H-imidazo[4,5-b]pyridin-1-yl]-N-methyl-acetamide]"
6,0.197,"COCCNC(=O)Cn1c(=O)[nH]c2ncc(-c3cccc(C(F)(F)F)c3)cc21 [Example 442, N-(2-Methoxyethyl)-2-[2-oxo-6-[3-(trifluoromethyl)phenyl]-3H-imidazo[4,5-b]pyridin-1-yl]acetamide]"

# Same assay, conditions: standard assay buffer (0.5 mM MgCl2 in dye loading buffer; 137 mM NaCl, 4 mM KCl in assay buffer), human GluN1/GluN2B, read-out: NR2B IC50 (μM) standard assay
row,IC50 [µM],SMILES
1,0.022,"Cc1cccc(-c2cnc3c(c2)n(CC(=O)N2CC(F)C2)c(=O)n3C)c1F [Example 405, 1-[2-(3-Fluoroazetidin-1-yl)-2-oxo-ethyl]-6-(2-fluoro-3-methyl-phenyl)-3-methyl-imidazo[4,5-b]pyridin-2-one]"
2,0.016,"Cn1c(=O)n(CC(=O)N2CC(F)C2)c2cc(-c3cccc(Cl)c3)cnc21 [Example 406, 6-(3-Chlorophenyl)-1-[2-(3-fluoroazetidin-1-yl)-2-oxo-ethyl]-3-methyl-imidazo[4,5-b]pyridin-2-one]"
3,0.031,"Cn1c(=O)n(CC(=O)N2CC(F)C2)c2cc(-c3ccc(F)c(C(F)(F)F)c3)cnc21 [Example 407, 1-[2-(3-Fluoroazetidin-1-yl)-2-oxo-ethyl]-6-[4-fluoro-3-(trifluoromethyl)phenyl]-3-methyl-imidazo[4,5-b]pyridin-2-one]"
4,0.008,"Cc1c(F)ccc(-c2cnc3c(c2)n(CC(=O)N2CCC2)c(=O)n3C)c1F [Example 409, 1-[2-(Azetidin-1-yl)-2-oxo-ethyl]-6-(2,4-difluoro-3-methyl-phenyl)-3-methyl-imidazo[4,5-b]pyridin-2-one]"
5,0.014,"Cn1c(=O)n(CC(=O)N2CCC2)c2cc(-c3cc(F)c(F)c(F)c3)cnc21 [Example 411, 1-[2-(Azetidin-1-yl)-2-oxo-ethyl]-3-methyl-6-(3,4,5-trifluorophenyl)imidazo[4,5-b]pyridin-2-one]"
6,0.027,"Cn1c(=O)n(CC(=O)N2CCC2)c2cc(-c3cc(F)cc(F)c3)cnc21 [Example 412, 1-[2-(Azetidin-1-yl)-2-oxo-ethyl]-6-(3,5-difluorophenyl)-3-methyl-imidazo[4,5-b]pyridin-2-one]"
7,0.009,"Cc1cc(-c2cnc3c(c2)n(CC(=O)N2CC(F)(F)C2)c(=O)n3C)ccc1F [Example 413, 1-(2-(3,3-Difluoroazetidin-1-yl)-2-oxoethyl)-6-(4-fluoro-3-methylphenyl)-3-methyl-1H-imidazo[4,5-b]pyridin-2(3H)-one]"
8,0.013,"Cc1c(F)ccc(-c2cnc3c(c2)n(CC(=O)N2CC(F)(F)C2)c(=O)n3C)c1F [Example 414, 1-[2-(3,3-Difluoroazetidin-1-yl)-2-oxo-ethyl]-6-(2,4-difluoro-3-methyl-phenyl)-3-methyl-imidazo[4,5-b]pyridin-2-one]"
9,0.015,"Cn1c(=O)n(CC(=O)N2CC(F)(F)C2)c2cc(-c3cccc(C(F)(F)F)c3F)cnc21 [Example 415, 1-[2-(3,3-Difluoroazetidin-1-yl)-2-oxo-ethyl]-6-[2-fluoro-3-(trifluoromethyl)phenyl]-3-methyl-imidazo[4,5-b]pyridin-2-one]"
10,0.01,"Cn1c(=O)n(CC(=O)N2CC(F)(F)C2)c2cc(-c3ccc(F)c(F)c3)cnc21 [Example 416, 1-[2-(3,3-Difluoroazetidin-1-yl)-2-oxo-ethyl]-6-(3,4-difluorophenyl)-3-methyl-imidazo[4,5-b]pyridin-2-one]"
11,0.031,"Cn1c(=O)n(CC(=O)N2CC(F)(F)C2)c2cc(-c3cccc(F)c3)cnc21 [Example 417, 1-[2-(3,3-Difluoroazetidin-1-yl)-2-oxo-ethyl]-6-(3-fluorophenyl)-3-methyl-imidazo[4,5-b]pyridin-2-one]"
12,0.019,"Cc1cccc(-c2cnc3c(c2)n(CC(=O)N2CC(F)(F)C2)c(=O)n3C)c1F [Example 418, 1-[2-(3,3-Difluoroazetidin-1-yl)-2-oxo-ethyl]-6-(2-fluoro-3-methyl-phenyl)-3-methyl-imidazo[4,5-b]pyridin-2-one]"
13,0.017,"Cc1cc(-c2cnc3c(c2)n(CC(=O)N(C)C)c(=O)n3C)ccc1F [Example 420, 2-[6-(4-Fuoro-3-methyl-phenyl)-3-methyl-2-oxo-imidazo[4,5-b]pyridin-1-yl]-N,N-dimethyl-acetamide]"
14,0.053,"CN(C)C(=O)Cn1c(=O)n(C)c2ncc(-c3ccc(F)c(F)c3)cc21 [Example 421, 2-[6-(3,4-Difluorophenyl)-3-methyl-2-oxo-imidazo[4,5-b]pyridin-1-yl]-N,N-dimethyl-acetamide]"
15,0.01,"Cn1c(=O)n(CC(=O)N2CCC2)c2cc(-c3ccc(F)c(F)c3)cnc21 [Example 422, 1-[2-(Azetidin-1-yl)-2-oxo-ethyl]-6-(3,4-difluorophenyl)-3-methyl-imidazo[4,5-b]pyridin-2-one]"
16,0.006,"Cc1c(F)ccc(-c2cnc3c(c2)n(CC(=O)N(C)C)c(=O)n3C)c1F [Example 423, 2-[6-(2,4-Difluoro-3-methyl-phenyl)-3-methyl-2-oxo-imidazo[4,5-b]pyridin-1-yl]-N,N-dimethyl-acetamide]"
17,0.028,"CN(C)C(=O)Cn1c(=O)n(C)c2ncc(-c3cccc(C(F)(F)F)c3F)cc21 [Example 424, 2-[6-[2-Fluoro-3-(trifluoromethyl)phenyl]-3-methyl-2-oxo-imidazo[4,5-b]pyridin-1-yl]-N,N-dimethyl-acetamide]"
18,0.408,"CN(C)C(=O)Cn1c(=O)n(C)c2ncc(-c3cccc(F)c3F)cc21 [Example 425, 2-[6-(2,3-Difluorophenyl)-3-methyl-2-oxo-imidazo[4,5-b]pyridin-1-yl]-N,N-dimethyl-acetamide]"
19,0.019,"CN(C)C(=O)Cn1c(=O)n(C)c2ncc(-c3cccc(C(F)F)c3)cc21 [Example 426, 2-[6-[3-(Difluoromethyl)phenyl]-3-methyl-2-oxo-imidazo[4,5-b]pyridin-1-yl]-N,N-dimethyl-acetamide]"
20,0.041,"Cc1cccc(-c2cnc3c(c2)n(CC(=O)N(C)C)c(=O)n3C)c1F [Example 427, 2-[6-(2-Fluoro-3-methyl-phenyl)-3-methyl-2-oxo-imidazo[4,5-b]pyridin-1-yl]-N,N-dimethyl-acetamide]"
21,0.126,"CN(C)C(=O)Cn1c(=O)n(C)c2ncc(-c3cc(F)cc(F)c3)cc21 [Example 428, 2-[6-(3,5-Difluorophenyl)-3-methyl-2-oxo-imidazo[4,5-b]pyridin-1-yl]-N,N-dimethyl-acetamide]"
22,> 10,"CN(C)C(=O)Cn1c(=O)n(C)c2ncc(-c3cccnc3)cc21 [Example 429, N,N-Dimethyl-2-[3-methyl-2-oxo-6-(3-pyridyl)imidazo[4,5-b]pyridin-1-yl]acetamide]"
23,0.028,"Cn1c(=O)n(CC(=O)N2CC(F)(F)C2)c2cc(-c3ccc(C(F)(F)F)s3)cnc21 [Example 430, 1-[2-(3,3-Difluoroazetidin-1-yl)-2-oxo-ethyl]-3-methyl-6-[5-(trifluoromethyl)-2-thienyl]imidazo[4,5-b]pyridin-2-one]"
24,0.095,"CN(C)C(=O)Cn1c(=O)n(C)c2ncc(-c3cc(F)c(F)c(C(F)(F)F)c3)cc21 [Example 431, 2-[6-[3,4-Difluoro-5-(trifluoromethyl)phenyl]-3-methyl-2-oxo-imidazo[4,5-b]pyridin-1-yl]-N,N-dimethyl-acetamide]"
25,0.962,"NC(=O)Cn1c(=O)[nH]c2ncc(-c3cccc(C(F)(F)F)c3)cc21 [Example 432, 2-[2-Oxo-6-[3-(trifluoromethyl)phenyl]-3H-imidazo[4,5-b]pyridin-1-yl]acetamide]"
26,0.583,"NC(=O)Cn1c(=O)[nH]c2ncc(-c3ccc(F)c(Cl)c3)cc21 [Example 434, 2-[6-(3-Chloro-4-fluoro-phenyl)-2-oxo-3H-imidazo[4,5-b]pyridin-1-yl]acetamide]"
27,0.264,"CNC(=O)Cn1c(=O)[nH]c2ncc(-c3cccc(C(F)(F)F)c3)cc21 [Example 435, N-Methyl-2-[2-oxo-6-[3-(trifluoromethyl)phenyl]-3H-imidazo[4,5-b]pyridin-1-yl]acetamide]"
28,0.219,"CNC(=O)Cn1c(=O)[nH]c2ncc(-c3ccc(F)cc3C)cc21 [Example 437, 2-[6-(4-Fluoro-2-methyl-phenyl)-2-oxo-3H-imidazo[4,5-b]pyridin-1-yl]-N-methyl-acetamide]"
29,0.358,"CNC(=O)Cn1c(=O)[nH]c2ncc(-c3ccc(F)cc3OC)cc21 [Example 440, 2-[6-(4-Fluoro-2-methoxy-phenyl)-2-oxo-3H-imidazo[4,5-b]pyridin-1-yl]-N-methyl-acetamide]"

row,SMILES,IC50 [µM]
1,"Cn1c(=O)n(CC(=O)N2CCC2)c2cc(-c3cccc(C(F)(F)F)c3)cnc21 [Example 408, 1-[2-(Azetidin-1-yl)-2-oxo-ethyl]-3-methyl-6-[3-(trifluoromethyl)phenyl]imidazo[4,5-b]pyridin-2-one]",0.042
2,"CN(C)C(=O)Cn1c(=O)n(C)c2ncc(-c3cccc(C(F)(F)F)c3)cc21 [Example 419, N,N-Dimethyl-2-[3-methyl-2-oxo-6-[3-(trifluoromethyl)phenyl]imidazo[4,5-b]pyridin-1-yl]acetamide]",0.047

# Reference: patent publication US11759455B2, “Substituted 1H-imidazo[4,5-b]pyridin-2(3H)-ones and their use as GLUN2B receptor modulators” (JANSSEN PHARMACEUTICA NV, priority 2016, dated 2023)
